US4165384A, “Amide substituted phenoxy propanol amines” (priority 1974, dated 1979)
Like-named read-outs stand apart in the source and are kept apart here.

Experiments:
[1] = biological target: T1, cardial β-receptors (Felis catus, UniProt Q9TST6); assay: Block of isoprenaline, heart rate (HR), reserpinized anesthetized cat; format: in vivo; conditions: iv, read-out: Block of isopren ED50 HR
T1 construct: from tissue; host or cells: heart in situ of anesthetized, reserpinized, vagotomized cat (in vivo, heart rate)
Method: (§1) The β-receptor blocking agents of the present invention were tested as regards their biological properties. All compounds were thereby tested in anesthetized cats (males and females weighing 2.5-3.5 kg) pretreated with reserpine (5 mg/kg body weight administered intra musculary) about 16 hours before the experiments. The animals were pretreated with reserpine in order to eliminate the endogenous sympathetic control of heart rate and vascular smooth muscle tone. The cats were anaesthetized with pentobarbital (30 mg/kg body weight administered i.p.) and artifically ventilated with room air. A bilateral vagotomy was performed in the neck. Blood pressure was obtained from a cannulated carotid artery and heart rate was registered from a cardiotachometer, triggered by the electrocardiogram. (ECG) Intrinsic beta-mimetic activity on the heart was seen as increased heart rate after drug administration. The test compounds were given intravenously in logarithmically increasing doses. The values obtained were plotted on dose-response curves, from which affinity values (ED50) were estimated. At the end of each experiment high doses of isoprenaline were given in order to obtain the maximal heart rate response.

[2] = biological target: T2, vascular β-receptors (Felis catus, UniProt Q9TST5); assay: Block of isoprenaline, PR (vascular), reserpinized anesthetized cat; format: in vivo; conditions: iv, read-out: Block of isopren ED50 PR
T2 construct: from tissue; host or cells: vascular smooth muscle in situ of anesthetized, reserpinized cat (in vivo, isoprenaline vasodilation)
Method: as §1

[3] = test system: heart; assay: Intrinsic β-mimetic activity on the heart (increased heart rate), reserpinized cat; format: in vivo; conditions: i.v.
Method: as §1

[4] = Effect on arterial blood pressure in conscious dogs; format: in vivo, Beagle dogs; conditions: conscious dog, after 1.5 mg/kg i.v.; for ΔBP Supino: supine
Method: The compounds were also tested on conscious dogs. Beagle dogs were trained to be lying quietly and to be lifted to an erect position by placing their forelegs on a table for 2 minutes. Arterial blood pressure was registered via a blood pressure transducer attached to the dog at the heart level. Heart rate was triggered from the ECG. All dogs were pretreated with methylscopolamine to avoid vagal influences. Recordings were taken before and 15 and 75 min after administration of the test compound, first in supine position for 2 min and then in the erect position for 2 minutes. The test compounds were given in increasing doses with 2 hours intervals.

[5] = reserpinized cat, i.v., heart rate

T2 sequence (Q9TST5 whole entry): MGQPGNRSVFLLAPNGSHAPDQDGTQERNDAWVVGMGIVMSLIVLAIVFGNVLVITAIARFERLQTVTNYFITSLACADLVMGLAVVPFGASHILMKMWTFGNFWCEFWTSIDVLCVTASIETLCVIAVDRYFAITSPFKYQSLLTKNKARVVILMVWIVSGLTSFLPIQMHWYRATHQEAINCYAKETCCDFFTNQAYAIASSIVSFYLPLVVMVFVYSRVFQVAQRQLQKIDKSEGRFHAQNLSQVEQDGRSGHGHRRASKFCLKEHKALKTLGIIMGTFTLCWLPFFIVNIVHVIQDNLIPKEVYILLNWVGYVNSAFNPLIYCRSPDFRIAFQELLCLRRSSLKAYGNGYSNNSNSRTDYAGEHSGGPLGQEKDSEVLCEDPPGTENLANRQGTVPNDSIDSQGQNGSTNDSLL
T1 sequence (Q9TST6 whole entry): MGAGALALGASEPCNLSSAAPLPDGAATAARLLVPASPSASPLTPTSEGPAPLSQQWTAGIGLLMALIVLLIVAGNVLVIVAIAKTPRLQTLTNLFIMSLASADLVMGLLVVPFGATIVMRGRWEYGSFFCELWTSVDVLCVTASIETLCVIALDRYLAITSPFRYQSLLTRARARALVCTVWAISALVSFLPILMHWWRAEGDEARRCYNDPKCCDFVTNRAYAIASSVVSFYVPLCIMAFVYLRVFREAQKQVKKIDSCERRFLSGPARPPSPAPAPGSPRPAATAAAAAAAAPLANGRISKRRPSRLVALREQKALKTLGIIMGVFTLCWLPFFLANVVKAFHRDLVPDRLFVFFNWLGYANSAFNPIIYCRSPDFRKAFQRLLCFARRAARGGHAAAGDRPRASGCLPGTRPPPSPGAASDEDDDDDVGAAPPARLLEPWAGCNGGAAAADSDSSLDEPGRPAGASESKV

Structure (SMILES) | ED50 [1, 5] [mg/kg] | ED50 ([2]; reserpinized cat, i.v., PR) [mg/kg] | Intrinsic activity [3] | ΔBP Erect [4] [mm Hg] | ΔBP Supino [4] | ED50 ([1]; cat) [mg/kg] | ED50 ([2]; cat) [mg/kg]
C=CCc1ccccc1OCC(O)CNCCOc1ccc(C(N)=O)cc1 (stereo not drawn) [Ex 1, 1[2-(4-carbamylphenoxy)-ethylamino]-3-(2-allylphenoxy)propanol-2] | 0.3 | 1.8 | 0 beats/min | -45 | -28 mm Hg | – | –
Cc1ccc(Cl)c(OCC(O)CNCCOc2ccc(C(N)=O)cc2)c1 (stereo not drawn) [Ex 2, 1-[2-(4-carbamylphenoxy)ethylamino]-3-(2-chloro-5-methylphenoxy)propanol-2] | 0.3 | 4.6 | 0 beats/min | – | – | – | –
COCCc1ccc(OCC(O)CNCCOc2ccc(C(N)=O)cc2)cc1 (stereo not drawn) [Ex 3, 1-[2-(4-carbamylphenoxy)ethylamino]-3-(2-methoxyethyl)phenoxypropanol-2] | 1.1 | 8.5 | 0 beats/min | – | – | – | –
C=CCc1ccccc1OCC(O)CNC(C)COc1ccc(C(N)=O)cc1 (stereo not drawn) [Ex 5, 1-[1-methyl-2-(4-carbamylphenoxy)ethylamino]-3-(2-allylphenoxy)propanol-2] | 0.05 | 0.2 | +15 beats/min | -42 | -43 mm Hg | – | –
C=CCc1ccccc1OCC(O)CNC(C)COc1ccccc1C (stereo not drawn) [Ex 6, 1-[1-methyl-2-(2-methylphenoxy)-ethylamino]-3-(2-allylphenoxy)propanol-2] | 0.5 | 0.5 | +24 beats/min | – | – | – | –
COC(=O)NCCc1ccc(OCCNCC(O)COc2ccccc2C)cc1 (stereo not drawn) [Ex 9, 1-[4-(2-(2-methoxycarbonylamino)ethyl)phenoxyethylamino]-3-(2-methylphenoxy)-propanol-2] | 0.3 | 2.4 | +40 beats/min | – | – | – | –
NC(=O)c1ccc(OCCNCC(O)COc2ccccc2Cl)cc1 (stereo not drawn) [Ex 11, 1-[2-(4-carbamoylphenoxy)ethylamino]-3-(2-chlorophenoxy)propanol-2] | 0.05 | 1 | +16 beats/min | -20 | -28 mm Hg | – | –
C=CCOc1ccccc1OCC(O)CNCCOc1ccc(C(N)=O)cc1 (stereo not drawn) [Ex 17] | 0.1 | 1.5 | +8 beats/min | -46 | -23 mm Hg | – | –
C#CCOc1ccccc1OCC(O)CNCCOc1ccc(C(N)=O)cc1 (stereo not drawn) [Ex 18] | 0.04 | 0.3 | +13 beats/min | – | – | – | –
NC(=O)Cc1ccccc1OCC(O)CNCCOc1ccc(C(N)=O)cc1 (stereo not drawn) [Ex 19] | 1.7 | < 8.5 | 0 beats/min | – | – | – | –
NC(=O)c1ccc(OCCNCC(O)COc2ccccc2OCC(=O)NCCO)cc1 (stereo not drawn) [Ex 20, 1-[2-(4-carbamylphenoxy)ethylamino]-3-[2-(ω-hydroxyethylaminocarbonylmethoxy)phenoxy]-propanol-2] | 0.03 | < 8.5 | – | – | – | – | –
COCCc1ccc(OCC(O)CNC(C)C)cc1 (stereo not drawn) [Metroprolol, 1-isopropylamino-3-[4-(2-methoxyethyl)phenoxy]-propanol-2, reference compound] | – | – | 0 beats/min | -3 | -5 mm Hg | 0.2 | 4.7
CC(=O)Nc1ccc(OCC(O)CNC(C)C)cc1 (stereo not drawn) [Practolol, 4-(2-hydroxy-3-isopropylaminopropoxy)acetanilide, reference compound] | 0.3 | 35 | +15 beats/min | – | – | – | –
CC(C)NCC(O)COc1cccc2ccccc12 (stereo not drawn) [Propranolol, 1-isopropylamino-3-(1-naphtoxy)-propanol-2, reference compound] | – | – | 0 beats/min | 0 | +5 mm Hg | – | –
